In PubChem BioAssay (NCI):
Where “and” joins values, the source holds several entries; their conditions need not be identical. Identical values can stand only once.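 Exposure lasted 48 hours, with cells grown in 96-well plates and compounds tested at five concentrations. Abbreviation: GI50, concentration required for 50% inhibition of growth. TGI marks complete inhibition of growth.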

Key:
Assay in all cases: growth of human tumour cells (NCI), 48 h
HOP-92 NSCLC = system: HOP-92 NSCLC
A549 NSCLC = system: A549 NSCLC
SK-OV-3 ovarian = system: SK-OV-3 ovarian
M14 melanoma = system: M14 melanoma
NCI-H226 lung = system: NCI-H226 lung
HL-60(TB) leukemia = system: HL-60(TB) leukemia
LOX IMVI melanoma = system: LOX IMVI melanoma
HCC-2998 colon = system: HCC-2998 colon
RPMI-8226 leukemia = system: RPMI-8226 leukemia
DU-145 prostate = system: DU-145 prostate

Compound	TGI (HOP-92 NSCLC) [µM]	TGI (A549 NSCLC)	TGI (SK-OV-3 ovarian) [µM]	TGI (M14 melanoma)	TGI (NCI-H226 lung)	TGI (HL-60(TB) leukemia) [µM]	TGI (LOX IMVI melanoma)	TGI (HCC-2998 colon)	TGI (RPMI-8226 leukemia)	GI50 (HOP-92 NSCLC) [µM]	GI50 (RPMI-8226 leukemia)	GI50 (A549 NSCLC)	GI50 (DU-145 prostate)	TGI (DU-145 prostate)	GI50 (SK-OV-3 ovarian)	GI50 (HL-60(TB) leukemia)	GI50 (LOX IMVI melanoma)	GI50 (HCC-2998 colon)	GI50 (M14 melanoma)	GI50 (NCI-H226 lung)
CC12CCCC(C#N)(C1)OC2=O (centres undefined)	> 100	> 100 µM	> 100	> 100 µM	> 100 µM	> 100														
CN1C(c2ccccc2)CC(C)(O)CC1c1ccccc1 (centres undefined)	> 100	> 100 µM	> 100	> 100 µM	> 100 µM	> 100	> 100 µM	> 100 µM	> 100 µM											
COc1cccc(CCNC(=O)CC(c2ccccc2)(c2ccccc2)c2ccccc2)c1	> 100	96.5 µM	> 100			> 100			> 100 µM	> 100	4980 nM	4110 nM	26800 nM	> 100 µM	> 100000 nM	17500 nM				
[N-]=[N+]=NCCCn1c2c(c3ccc([N+](=O)[O-])cc3c1=O)C(=O)c1cc(I)ccc1-2		> 100 µM	8.74	22.4 µM	> 100 µM	26.3	33 µM	59.3 µM	59.6 µM		2170 nM	8060 nM	1780 nM	6.95 µM	2110 nM	3790 nM	3750 nM	11700 nM	3290 nM	14.3 µM
O=C(O)CCC(=O)Oc1ccc(O)c2c1CCCC2=O		> 100 µM	> 100	> 100 µM	> 100 µM	> 100	> 100 µM	> 100 µM	> 100 µM											
COC(=O)[C@H](Cc1ccccc1)NNC(=O)c1csc([C@@H](C[C@H](C(C)C)N(C)C(=O)[C@@H](NC(=O)[C@H]2CCCCN2C)C2CC2)OC(C)=O)n1		25 µM and > 100 µM	> 100	25 µM	25 µM and > 100 µM	0.00596	25 µM and > 100 µM	25 µM and > 100 µM	25 µM and > 100 µM					25 µM and > 100 µM	480 nM and 1000 nM	1.3 nM			11.2 nM and 2.5 nM	
CN(C)c1ccc(/C=C(\C#N)c2ccccc2)cc1		> 100 µM	> 100	> 100 µM	> 100 µM	11.8	> 100 µM and 43.1 µM	31.7 µM and 57.4 µM and > 100 µM			288 nM and 648 nM	730 nM and 796 nM and 691 nM	617 nM and 1510 nM and 1480 nM	22.3 µM and > 100 µM	421 nM and 622 nM and 641 nM	218 nM and 340 nM	777 nM and 605 nM and 404 nM	1310 nM and 3240 nM and 1620 nM	329 nM and 344 nM and 304 nM	4.7 µM and 13.3 µM and 24 µM
N#CC(C(=O)CCC(=O)Nc1ccc(Cl)cc1)c1ccc(Cl)cc1 (centres undefined)	> 100	> 100 µM	> 100	> 100 µM	> 100 µM	> 100	> 100 µM	> 100 µM	> 100 µM											
Cc1cc(Cl)ccc1NC(=O)CC1SC(=NC(=O)c2ccccc2Cl)NC1=O (centres undefined)	35.9	> 100 µM		32 µM	75 µM	4.72	38.6 µM	> 100 µM	38.4 µM											
O=C(CN(Cc1ccccc1)Cc1ccccc1)N1CCc2c([nH]c3ccccc23)C1c1cccnc1 (centres undefined)	12.8	> 100 µM	> 100	14.2 µM		4.17	39.5 µM	> 100 µM	4.53 µM											
CCOC(=O)NC(=O)c1cn(CCCCCCCCCCC(=O)NCCCN2CCN(CCCNC(=O)CCCCCCCCCCn3cc(C(=O)NC(=O)OCC)c(=O)[nH]c3=O)CC2)c(=O)[nH]c1=O	> 100	> 100 µM	> 100	> 10 µM		> 100	> 100 µM	> 100 µM												
Cc1ccc2nc(Sc3c([N+](=O)[O-])ncn3C)[nH]c2c1	41.3	> 100 µM	> 100	92.5 µM	45 µM		> 100 µM	30.6 µM	78.7 µM											
N.N.N.N.N.N#Cc1nn[n-]n1.[Cl-].[Co+3]	> 100	> 100 µM	> 100	> 100 µM		> 100	> 100 µM	> 100 µM	> 100 µM	> 100	> 100000 nM	> 100000 nM			> 100000 nM	> 100000 nM	> 100000 nM	> 100000 nM	> 100000 nM	
CC(=O)n1nnc2ccc([N+](=O)[O-])cc21	> 100	> 100 µM	> 100	> 100 µM	> 100 µM	> 100	> 100 µM		> 100 µM											
COC(=O)C(=O)C(C#N)c1cccc(Cl)c1 (centres undefined)		> 100 µM	> 100	> 100 µM	> 100 µM	> 100	> 100 µM	> 100 µM	> 100 µM											
CC(=O)NC(CS)C(=O)O (centres undefined)		> 100 µM and 69600 µM	> 100	> 100 µM and 35500 µM	> 100 µM and 45000 µM	> 100	> 100 µM	> 100 µM and 50800 µM	> 100 µM and 3720 µM		> 100000 nM	> 100000 nM	> 100000 nM	> 100 µM	> 100000 nM	> 100000 nM		> 100000 nM	> 100000 nM	> 100 µM
Cc1cc2c(C(=O)NCC#N)cccc2n1-c1nc2c(c(NCc3ccccc3)n1)CCCC2		1.28 µM	2.78	0.532 µM	0.748 µM	> 100	0.358 µM	0.357 µM				312 nM	384 nM	2.48 µM	431 nM	311 nM	180 nM	178 nM	220 nM	0.293 µM
Cn1nc(-c2ccccc2)c2c(/C=C/c3ccc(Cl)cc3)onc2c1=O	57.1	35.4 µM		> 100 µM			95.4 µM		> 100 µM											
N#CCCN(C1=NN(C(=O)CC(=O)Nc2ccc(Cl)cc2)C(c2ccccc2)C1)c1ccc(Cl)cc1 (centres undefined)	> 100	> 100 µM		> 100 µM	> 100 µM	> 100	> 100 µM	> 100 µM	> 100 µM											
Cn1cnc([N+](=O)[O-])c1Sc1nc2ccccc2o1	12.4	75.4 µM	> 81.2	24.4 µM	30.9 µM	3.79	26.1 µM	24.9 µM	22.5 µM											
